Laboratory results published in US8357350B2, “Annulus fibrosus detection in intervertebral discs using molecular imaging agents” (General Electric Company, priority 2009, dated 2013).

How the values were obtained:
[1] = Absorbance and fluorescence spectra of FM fluorophores in solvents; format: physicochemical
Experimental: Absorbance and fluorescence spectra of the FM fluorophores were measured in PBS and absolute methanol (MeOH) using fiber-optic HR2000 (200-1100 nm) and USB2000FL (350-1000 nm) spectrometers (Ocean Optics, Dunedin, Fla.), respectively. Fluorescence excitation was provided by a 2 mW, 532 nm laser diode. The fluorescence and absorbance spectra of FORMULA II and FORMULA IA were collected in dimethyl sulfoxide (DMSO) and fetal bovine serum (FBS), as well as MeOH and PBS. The quantum yield of FORMULA II and FORMULA IA in DMSO, MeOH, FBS and PBS was measured by comparing the integrated fluorescence emission of the fluorophores in each solvent to the emission of Alexa Fluor 555 (Invitrogen) in PBS (quantum yield=10%) as a reference standard under conditions of matched absorbance at the excitation wavelength. The LogD of each FM fluorophore at pH 7.5 was calculated using Marvin 5.0.3 software (ChemAxon, Budapest, Hungary).

intervertebral discs = assay: Two-wavelength imaging of resected spine with Pam800 and FORMULA IA; format: in vivo, Sprague-Dawley rat; details: rat
Experimental: Imaging was carried out at near infrared wavelenghts using a 400- to 700-nm “white” light (0.5 mW/cm^2) and a 725- to 775-nm NIR fluorescence excitation light (5 mW/cm^2). Fluorescence images were collected using exposure times ranging from 500 to 2000 msec. All images collected for comparison between vehicle-injected control animals and FM fluorophore-injected animals had the same exposure time and normalization. Color video images were collected on a separate optical channel using custom designed software. The excitation and emission LEDs and filter used for the FM fluorophores and Pam800 in the intraoperative imaging system are described as follows. For fluorescence excitation of FM 1-43, FM 2-10, FM 1-43FX and Formula IA, sixty 5-mm 470 nm LEDs (Epitex, Inc., Kyoto, Japan) fitted with 470±20 nm band pass (BP) excitation filters (Chroma Technology, Rockingham, Vt.) in custom holders were used, which produced a fluence rate on the imaging surface of 0.56 mW/cm^2. For fluorescence excitation of Formula II, FM 4-64, FM 4-64FX and FM 5-95, sixty 5-mm 535 nm LEDs fitted with 525±25 nm BP excitation filters were used, which produced a fluence rate on the imaging surface of 0.34 mW/cm^2. A 610±38 nm BP filter was used to detect fluorescence emission of FM 1-43, FM 2-10, Formula II, FM 1-43FX and Formula IA. […]

With `CCCCN(CCCC)c1ccc(/C=C/c2cc[n+](CCC[N+](C)(C)C)cc2)cc1.[Br-].[Br-]` [Formula IA, (E)-4-(4-(dibutylamino)styryl)-1-(3-(trimethylammonio)propyl)pyridinium dibromide] the “Em nm (MeOH)” value ([1]; emission maximum in MeOH) was 624 nm, the “Em nm (PBS)” value ([1]; emission maximum in PBS) was 628 nm and the “Ex nm (MeOH)” value ([1]; excitation maximum in MeOH) was 510 nm. The “Ex nm (PBS)” value ([1]; excitation maximum in PBS) was 497 nm, the “overlap of signals with Pam800 (bone)” value (intervertebral discs; 7.5 nmol Pam800 16 h and 2 mg/kg Formula IA 4 h post-IV) was “no overlap” and the “specificity of fluorescence signal in the spine” value (intervertebral discs; 2 mg/kg IV, 4 h, sagittal spine and disc cross-section) was “specific for the intervertebral discs”.
